Measured values from PMC7698448, “Design, Synthesis, and Biological Evaluation of Pyridazinones Containing the (2-Fluorophenyl) Piperazine Moiety as Selective MAO-B Inhibitors” (Molecules, 2020).
“Also recorded” adds a separate entry of the source.

How the values were obtained:
recombinant human MAO-A = target: T1, recombinant human MAO-A (Homo sapiens, UniProt P21397); assay: Recombinant human MAO-A inhibition assay (kynuramine substrate); assay type: biochemical; details: kynuramine 0.06 mM, 15 min preincubation; for remaining activity at 10 µM: inhibitor 10 µM, read-out: Residual Activity (%) MAO-A (10 µM)
T1 construct: purchased Sigma-Aldrich
T1 sequence (P21397 1-527): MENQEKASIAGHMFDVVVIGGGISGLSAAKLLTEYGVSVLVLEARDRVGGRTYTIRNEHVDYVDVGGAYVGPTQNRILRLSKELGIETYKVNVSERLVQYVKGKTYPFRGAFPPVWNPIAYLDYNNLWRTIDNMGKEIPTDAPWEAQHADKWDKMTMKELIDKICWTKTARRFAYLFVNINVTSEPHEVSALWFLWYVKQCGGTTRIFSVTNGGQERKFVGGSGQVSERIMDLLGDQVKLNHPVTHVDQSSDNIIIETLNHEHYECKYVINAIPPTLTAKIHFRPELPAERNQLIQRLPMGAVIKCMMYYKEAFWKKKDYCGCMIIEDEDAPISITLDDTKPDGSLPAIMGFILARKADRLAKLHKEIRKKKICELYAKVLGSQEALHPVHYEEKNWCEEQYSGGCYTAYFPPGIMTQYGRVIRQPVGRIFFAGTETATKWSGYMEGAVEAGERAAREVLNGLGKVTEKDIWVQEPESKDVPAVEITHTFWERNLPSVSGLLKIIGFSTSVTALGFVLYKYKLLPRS
Procedure: Recombinant human MAO-A and MAO-B inhibitory activities of were continuously assayed as described previously [37], using kynuramine (0.06 mM) and benzylamine (0.3 mM), respectively. […] MAO-A and MAO-B inhibitory activities were measured after preincubating enzymes and inhibitors for 15 min.
The inhibitory activities of the twelve compounds against MAO-A and MAO-B were first investigated at an inhibitor concentration of 10 µM. For the compounds showing residual activities of <50%, IC50 values for MAO-A and MAO-B inhibitions were determined. Kinetic experiments were carried out at five substrate and three inhibitor concentrations [38].

MAO-B [1] = target: T2, MAO-B (Homo sapiens, UniProt P27338); assay: Recombinant human MAO-B inhibition assay (benzylamine substrate); details: for SI (IC50 of MAO-A/IC50 of MAO-B): selectivity index for MAO-B; for Times more potent on MAO-B than lazabemide: ratio of MAO-B potency versus reference reversible inhibitor lazabemide
T2 sequence (P27338 1-520): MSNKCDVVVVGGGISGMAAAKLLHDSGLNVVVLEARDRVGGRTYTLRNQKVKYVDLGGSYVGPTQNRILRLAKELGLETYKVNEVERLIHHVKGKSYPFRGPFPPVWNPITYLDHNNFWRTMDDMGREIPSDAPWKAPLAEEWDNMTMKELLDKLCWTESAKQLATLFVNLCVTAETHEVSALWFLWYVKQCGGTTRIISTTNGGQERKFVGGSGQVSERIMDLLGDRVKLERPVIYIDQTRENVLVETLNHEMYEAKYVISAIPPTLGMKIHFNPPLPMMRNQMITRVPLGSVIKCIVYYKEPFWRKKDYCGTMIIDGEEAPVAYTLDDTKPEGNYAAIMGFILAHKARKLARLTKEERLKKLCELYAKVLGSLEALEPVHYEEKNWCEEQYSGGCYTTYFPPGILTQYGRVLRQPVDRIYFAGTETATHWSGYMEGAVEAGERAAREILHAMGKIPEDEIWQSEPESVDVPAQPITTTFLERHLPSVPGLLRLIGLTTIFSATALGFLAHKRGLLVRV
Procedure: Recombinant human MAO-A and MAO-B inhibitory activities of were continuously assayed as described previously [37], using kynuramine (0.06 mM) and benzylamine (0.3 mM), respectively. […] MAO-A and MAO-B inhibitory activities were measured after preincubating enzymes and inhibitors for 15 min. Enzymes and chemicals were obtained from Sigma-Aldrich (St. Louis, MO, USA).
(§2) Kinetic experiments were carried out at five substrate and three inhibitor concentrations [38].

MAO-B [2] = target: T2, MAO-B; assay: Kinetics of MAO-B inhibition (Lineweaver-Burk and secondary plots); assay type: biochemical; design: purchased Sigma-Aldrich
Procedure: as §2

L929 cells = assay: MTS cytotoxicity assay in L929 cells; assay type: cell-based, mouse; details: 48 h
Procedure: (§1) An MTS (5-(3-carboxymethoxyphenyl)-2-(4,5-dimethyl-thiazolyl)-3-(4-sulfophenyl)) tetrazolium assay was used to evaluate the cytotoxic activities of T3 and T6 by measuring formazan absorbance. MTS is converted to formazan by mitochondria in metabolically active cells via NAD(P)H-dependent dehydrogenase enzymes. L929 cells (a mouse fibroblast cell line) were used to evaluate the cytotoxicities. Briefly, cells (5 × 10^4 cells/well) were seeded into 96-well plates in DMEM containing 10% fetal bovine serum and 1% penicillin/streptomycin, and incubated for 24 h. After supernatants were removed, the cells were treated with the compounds dissolved in DMSO (at 1, 10, 20, 50, or 100 µM) in triplicate for 48 h at 37 °C in a 5% CO2 atmosphere. MTS reagent (Uptima, Interchim, Montluçon, France) was then added to each well and incubated for 3 h. Absorbances were measured at 490 nm using a microplate reader (BioTek, Winooski, VT, USA), and cell viabilities were calculated as percentage of untreated controls.

[3] = MTS cytotoxicity assay in L929 cells; assay type: cell-based, mouse; details: mouse, L929 cells (mouse fibroblast cell line), 48 h treatment
Procedure: as §1

MAO-B [4] = target: T2, MAO-B; assay: Reversibility of MAO-B inhibition by dialysis; assay type: biochemical; design: purchased Sigma-Aldrich; details: for Relative MAO-B activity of dialyzed sample (AD) / Relative MAO-B activity of undialyzed sample (AU): 30 min preincubation, T3 0.080 µM, T6 0.020 µM, lazabemide 0.30 µM; for Relative MAO-B activity of dialyzed sample (AD): after dialysis; for Reversibility of MAO-B inhibition (recovery by dialysis): pargyline 0.060 µM
Procedure: Reversibility studies were performed using a dialysis-based method.
The reversibilities of T3 and T6 inhibitions were investigated by dialysis after preincubating them with MAO-B for 30 min, as previously described. […] Reversibilities were determined using the relative activities of undialyzed (AU) and dialyzed (AD) samples [40].

remaining activity at 10 µM (recombinant human MAO-A) [%] | IC50 (MAO-B [1]) [nM] | melting point [°C] | IC50 (recombinant human MAO-A) [µM] | SI (IC50 of MAO-A/IC50 of MAO-B) (MAO-B [1]) | SMILES | also measured
73.3 ± 2.86 | 2670 ± 51 | 207 to 208 |  |  | O=C(Cn1nc(N2CCN(c3ccccc3F)CC2)ccc1=O)NN=Cc1cccc(Br)c1 [Compound T8, 6-[4-(2-Fluorophenyl)piperazine-1-yl]-3(2H)-pyridazinone-2-acetyl-2-(3-bromobenzal)hydrazon] | 
35.2 ± 0.56 | 200 ± 1.7 | 225 to 226 | 6.76 ± 0.46 | 33.8 | O=C(Cn1nc(N2CCN(c3ccccc3F)CC2)ccc1=O)NN=Cc1ccccc1F [Compound T9, 6-[4-(2-Fluorophenyl)piperazine-1-yl]-3(2H)-pyridazinone-2-acetyl-2-(2-fluorobenzal)hydrazon] | 
84 ± 0.68 | 1680 ± 110 |  |  |  | O=C(Cn1nc(N2CCN(c3ccccc3F)CC2)ccc1=O)NN=Cc1ccc(Br)cc1 [Compound T5] | 
75.2 ± 4.7 | 99 ± 6.9 |  |  |  | O=C(Cn1nc(N2CCN(c3ccccc3F)CC2)ccc1=O)NN=Cc1ccc(Cl)cc1 [Compound T4] | 
70.4 ± 8.5 | 6860 ± 370 | 148 to 150 |  |  | COc1ccc(C=NNC(=O)Cn2nc(N3CCN(c4ccccc4F)CC3)ccc2=O)cc1 [Compound T11, 6-[4-(2-Fluorophenyl)piperazine-1-yl]-3(2H)-pyridazinone-2-acetyl-2-(4-methoxybenzal)hydrazon] | 
24.6 ± 0.97 | 39 ± 2.8 |  | 4.19 ± 0.27 | 107.4 | O=C(Cn1nc(N2CCN(c3ccccc3F)CC2)ccc1=O)NN=Cc1ccccc1Cl [Compound T3] | Times more potent on MAO-B than lazabemide (MAO-B [1]): 3; Type of MAO-B inhibition (MAO-B [2]): competitive inhibitors; Cytotoxic effect on L929 cells at 1, 10, or 20 µM (L929 cells; 1, 10, or 20 µM): no significant death; Cytotoxic effect on L929 cells at 50 and 100 µM (L929 cells; 50 and 100 µM): complete cell death; IC50 at 48 h [3]: 27.1 µM; Relative MAO-B activity of dialyzed sample (AD) (MAO-B [4]): 79.4%; Relative MAO-B activity of undialyzed sample (AU) (MAO-B [4]): 22.2%; Reversibility of MAO-B inhibition (recovery by dialysis) (MAO-B [4]): reversibly inhibit MAO-B; also recorded: reversible
24.6 ± 2.86 | 100 ± 35 |  | 4.29 ± 0.12 | 42.9 | Cc1ccc(C=NNC(=O)Cn2nc(N3CCN(c4ccccc4F)CC3)ccc2=O)cc1 [Compound T2] | 
61.8 ± 1.65 | 150 ± 21 | 244 to 245 |  |  | Cc1ccccc1C=NNC(=O)Cn1nc(N2CCN(c3ccccc3F)CC2)ccc1=O [Compound T12, 6-[4-(2-Fluorophenyl)piperazine-1-yl]-3(2H)-pyridazinone-2-acetyl-2-(2-methylbenzal)hydrazon] | 
33.7 ± 4.7 | 35300 ± 390 | 178 to 180 | 7.35 ± 0.059 | 0.21 | O=C(Cn1nc(N2CCN(c3ccccc3F)CC2)ccc1=O)NN=Cc1ccc(F)cc1 [Compound T10, 6-[4-(2-Fluorophenyl)piperazine-1-yl]-3(2H)-pyridazinone-2-acetyl-2-(4-florobenzal)hydrazon] | 
25.4 ± 6.92 | 870 ± 56 |  | 4.43 ± 0.29 |  | CN(C)c1ccc(C=NNC(=O)Cn2nc(N3CCN(c4ccccc4F)CC3)ccc2=O)cc1 [Compound T7] | 
20.7 ± 0.62 | 13 ± 1.6 |  | 1.57 ± 0.8 | 120.8 | COc1ccccc1C=NNC(=O)Cn1nc(N2CCN(c3ccccc3F)CC2)ccc1=O [Compound T6] | Times more potent on MAO-B than lazabemide (MAO-B [1]): 11; MAO-B potency relative to pargyline (MAO-B [1]; versus reference irreversible inhibitor pargyline): twice as potent; Type of MAO-B inhibition (MAO-B [2]): competitive inhibitors; Cytotoxic effect on L929 cells at any dose (L929 cells; 1, 10, 20, 50, or 100 µM): did not have a cytotoxic effect; IC50 at 48 h [3]: > 100 µM; Relative MAO-B activity of dialyzed sample (AD) (MAO-B [4]): 79.0%; Relative MAO-B activity of undialyzed sample (AU) (MAO-B [4]): 36.9%; Reversibility of MAO-B inhibition (recovery by dialysis) (MAO-B [4]): reversibly inhibit MAO-B; also recorded: reversible
96.6 ± 1.2 | 7680 ± 140 |  |  |  | O=C(Cn1nc(N2CCN(c3ccccc3F)CC2)ccc1=O)NN=Cc1ccccc1 [Compound T1] | 
